These results are taken from patent publication US20210015098A1, “MOLECULES HAVING PESTICIDAL UTILITY, AND INTERMEDIATES, COMPOSITIONS, AND PROCESSES, RELATED THERETO” (DOW AGROSCIENCES LLC, priority 2018, published 2021).

Common to all, as to format: in vivo
Data set [1] concerns Beet Armyworm (Spodoptera exigua, LAPHEG). Kind of data set: Bioassays on Beet Armyworm (BAW), 128-well diet tray assay. The following applies: for pest or weed control at 50 µg/cm2: Beet Armyworm, Table ABC Biological Results, read-out: BAW (rating). In outline: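 Percent larval mortality, averaged across eight wells, scored after five to seven days at 25° C. under 14:10 light-dark. Each well held one to five second instars feeding on diet dosed at 50 μg/cm^2 with compound from 90:10 acetone-water, solvent dried off.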

Data set [2] concerns Cabbage Looper (Trichoplusia ni, TRIPNI). The experiment in a line: Bioassays on Cabbage Looper (CL), 128-well diet tray assay. The following applies: for pest or weed control at 50 µg/cm2: Cabbage Looper, Table ABC Biological Results, read-out: CL (rating). In short, it runs like this: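 Percent mortality, averaged across eight replicate wells, after second-instar larvae (1–5 per well) fed for five to seven days on diet dosed at 50 μg/cm^2. Compound was applied in acetone-water 90:10 and dried; trays kept vented at 25° C under 14:10 photoperiod.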

Data set [3] has as its system Green Peach Aphid (Myzus persicae, MYZUPE). Kind of data set: Bioassays on Green Peach Aphid (GPA), foliar spray on cabbage seedlings. Particulars: for GPA (rating): Green Peach Aphid, Table ABC Biological Results. As for the experimental part: Certain molecules disclosed in this document were tested against GPA using procedures described in the following example. In the reporting of the results, the “GPA & YFM Rating Table” was used (See Table Section).
Cabbage seedlings grown in 3-inch pots, with 2-3 small (3-5 cm) true leaves, were used as test substrate. The seedlings were infested with 20-50 GPA (wingless adult and nymph stages) one day prior to chemical application. Four pots with individual seedlings were used for each treatment. Test molecules (2 mg) were dissolved in 2 mL of acetone/methanol (1:1) solvent, forming stock solutions of 1000 ppm test molecule. The stock solutions were diluted 5× with 0.025% Tween 20 in water to obtain the solution at 200 ppm test molecule. A hand-held aspirator-type sprayer was used for spraying a solution to both sides of […] leaves until runoff. Reference plants (solvent check) were sprayed with the diluent only containing 20% by volume of acetone/methanol (1:1) solvent. Treated plants were held in a holding room for three days at approximately 25° C. and ambient relative humidity (RH) prior to grading. Evaluation was conducted by counting the number of live aphids per plant under a microscope. Percent control was measured using Abbott's correction formula (W. S. Abbott, “A Method of Computing the Effectiveness of an Insecticide” J. Econ. Entomol. 18 (1925), pp. 265-267) as follows. Corrected % Control=100*(X−Y)/X where X=No. of live aphids on solvent check plants and Y=No. of live aphids on treated plants. The results are indicated in the table entitled “Table ABC: Biological Results” (See Table Section).

Data set [4] has as its system Yellow Fever Mosquito (Aedes aegypti, AEDSAE). As for the experimental part:
Certain molecules disclosed in this document were tested against YFM using procedures described in the following paragraph. In the reporting of the results, the “GPA & YFM Rating Table” was used (See Table Section).
Master plates containing 400 μg of a molecule dissolved in 100 μL of dimethyl sulfoxide (DMSO) (equivalent to a 4000 ppm solution) are used. A master plate of assembled molecules contains 15 μL per well. To this plate, 135 μL of a 90:10 water/acetone mixture is added to each well. A robot (Biomek® NXP Laboratory Automation Workstation) is programmed to dispense 15 μL aspirations from the master plate into an empty 96-well shallow plate (“daughter” plate). There are 6 reps (“daughter” plates) created per master. The created “daughter” plates are then immediately infested with YFM larvae.
The day before plates are to be treated, mosquito eggs are placed in Millipore water containing liver powder to begin hatching (4 g into 400 mL). After the “daughter” plates are created using the robot, they are infested with 220 μL of the liver powder/larval mosquito mixture (about 1 day-old larvae). After plates are infested with mosquito larvae, a non-evaporative lid is used to cover the plate to reduce drying. Plates are held at room temperature for 3 days prior to grading. After 3 days, each well is observed and scored based on mortality. The results are indicated in the table entitled “Table ABC: Biological Results” (See Table Section).

As for `Nc1c(F)ccc(NC(=O)c2cc(NC(=O)[C@H]3[C@H](c4cccc(C(F)(F)F)c4)C3(Cl)Cl)ccc2Cl)c1F` [DP6, N-(3-Amino-2,4-difluorophenyl)-2-chloro-5-((1R,3R)-2,2-dichloro-3-(3-(trifluoromethyl)phenyl)cyclopropane-1-carboxamido)benzamide], the mortality (commonly the percentage killed) at 50 µg/cm2 was in the range of 50 to 100% in data set [1] (168 h, 50 μg/cm^2 on artificial diet, second instar larvae, 25° C., five to seven days, read-out: BAW % Control (or Mortality) rating) and 50 to 100% in data set [2] (168 h, 50 μg/cm^2 on artificial diet, second instar larvae, 25° C., five to seven days, read-out: CL % Control (or Mortality) rating). Besides, the mortality at 200 ppm in data set [3] (Myzus persicae, 72 h, 200 ppm foliar spray on cabbage seedlings, three days, Abbott corrected % control, read-out: GPA % Control (or Mortality) rating) is 80 to 100%. For the same compound, the “YFM % Control (or Mortality) rating” value in data set [4] (about 1 day-old larvae, 96-well plate, room temperature, 3 days) is reported as “B (More than 0-Less than 80)”.
With `C=CCSCC(=O)Nc1c(F)ccc(NC(=O)c2cc(NC(=O)[C@H]3[C@H](c4ccc(F)c(C(F)(F)F)c4)C3(Cl)Cl)ccc2Cl)c1F` [F3, N-(3-(2-(Allylthio)acetamido)-2,4-difluorophenyl)-2-chloro-5-((1R,3R)-2,2-dichloro-3-(4-fluoro-3-(trifluoromethyl)phenyl)cyclopropane-1-carboxamido)benzamide], the pest or weed control at 50 µg/cm2 in data set [1] and in data set [2] was 50 to 100% in each case. In addition, the “GPA (rating)” value in data set [3] is reported as “B (More than 0-Less than 80)”.
In the case of `CC[S+]([O-])C(C)C(=O)Nc1c(F)ccc(NC(=O)c2cc(NC(=O)[C@H]3[C@H](c4ccc(F)c(C(F)(F)F)c4)C3(Cl)Cl)ccc2Cl)c1F` (stereo partly drawn) [F34, 2-chloro-5-((R,3R)-2,2-dichloro-3-(4-fluoro-3-(trifluoromethyl)phenyl)cyclopropane-1-carboxamido)-N-(3-(2-(ethylsulfinyl)propanamido)-2,4-difluorophenyl)benzamide], the pest or weed control at 50 µg/cm2 in data set [1] and in data set [2] was 50 to 100% in each case. Besides, in data set [3], the “GPA (rating)” value was “B (More than 0-Less than 80)”. Moreover, in data set [4] (Yellow Fever Mosquito, Table ABC Biological Results), the “YFM (rating)” value is reported as “A (80-100)”.
